Data as given in patent US20240024273A1, “TOPICAL ADMINISTRATION OF 2-(DIETHYLAMINO)ETHYL 2-(4-ISOBUTYLPHENYL)PROPRIONATE FOR TREATMENT OF DISEASES” (TECHFIELDS PHARMA CO., LTD., priority 2020, published 2024).

Columns and labels:
[1] = system: Mild to Moderate Osteoarthritis of the Knee; assay: Phase 2 study: subject's and physician's global assessment of response to therapy; type: in vivo, human
Text: (§1) 3.9.3. Exploratory Efficacy Endpoints: • 1. Subject's global assessment of disease status of the target knee at 2, 4, 8, and 12 weeks of treatment; • 2. Investigator's global assessment of disease status of the target knee at 2, 4, 8, and 12 weeks of treatment; • 3. Subject's global assessment of response to therapy of the target knee at 2, 4, 8, and 12 weeks of treatment; • 4. Investigator's global assessment of response to therapy of the target knee at 2, 4, 8, and 12 weeks of treatment; • 5. Change from Baseline over time in VAS pain scores for the target knee from Daily Diary data; • 6. Amount of rescue medication (acetaminophen) consumed per day for target knee pain.
(§2) Data for the exploratory efficacy endpoints will be summarized using descriptive statistics.

[2] = 14-day repeated dermal dose toxicity study; design: species or system Rats; conditions: rat, in vivo, topical or ocular; 14-day dermal
[3] = system: Mild to Moderate Osteoarthritis of the Knee; assay: Phase 2 study: physician's global assessment of disease status; type: in vivo, human
Text: as §1, §2

SMILES: CCN(CC)CCOC(=O)C(C)c1ccc(CC(C)C)cc1 (centres unmarked) [2-(diethylamino)ethyl 2-(4-isobutylphenyl)propionate]
- Physician's global assessment of response to therapy: Excellent ([1]; 8.75 mg/knee (BID)): 11.1%
- Physician's global assessment of response to therapy: fair ([1]; 8.75 mg/knee (BID)): 36.5%
- Physician's global assessment of response to therapy: good ([1]; 8.75 mg/knee (BID)): 38.1%
- Physician's global assessment of response to therapy: none ([1]; 8.75 mg/knee (BID)): 7.9%
- Physician's global assessment of response to therapy: poor ([1]; 8.75 mg/knee (BID)): 6.3%
- Physician's global assessment of response to therapy: total percentage of excellent and good ([1]; 8.75 mg/knee (BID)): 49.2%
- Subject's global assessment of response to therapy: Excellent ([1]; 8.75 mg/knee (BID)): 7.8%
- Subject's global assessment of response to therapy: fair ([1]; 8.75 mg/knee (BID)): 29.7%
- Subject's global assessment of response to therapy: good ([1]; 8.75 mg/knee (BID)): 43.8%
- Subject's global assessment of response to therapy: none ([1]; 8.75 mg/knee (BID)): 9.4%
- Subject's global assessment of response to therapy: poor ([1]; 8.75 mg/knee (BID)): 9.4%
- Subject's global assessment of response to therapy: total percentage of excellent and good ([1]; 8.75 mg/knee (BID)): 51.6%
- Physician's global assessment of response to therapy: Excellent ([1]; 17.5 mg/knee (BID)): 23.2%
- Physician's global assessment of response to therapy: fair ([1]; 17.5 mg/knee (BID)): 18.8%
- Physician's global assessment of response to therapy: good ([1]; 17.5 mg/knee (BID)): 43.5%
- Physician's global assessment of response to therapy: none ([1]; 17.5 mg/knee (BID)): 5.8%
- Physician's global assessment of response to therapy: poor ([1]; 17.5 mg/knee (BID)): 8.7%
- Physician's global assessment of response to therapy: total percentage of excellent and good ([1]; 17.5 mg/knee (BID)): 66.7%
- Subject's global assessment of response to therapy: Excellent ([1]; 17.5 mg/knee (BID)): 20.3%
- Subject's global assessment of response to therapy: fair ([1]; 17.5 mg/knee (BID)): 17.2%
- Subject's global assessment of response to therapy: good ([1]; 17.5 mg/knee (BID)): 50.0%
- Subject's global assessment of response to therapy: none ([1]; 17.5 mg/knee (BID)): 7.8%
- Subject's global assessment of response to therapy: poor ([1]; 17.5 mg/knee (BID)): 4.7%
- Subject's global assessment of response to therapy: total percentage of excellent and good ([1]; 17.5 mg/knee (BID)): 70.3%
- Physician's global assessment of response to therapy: Excellent ([1]; 35 mg/knee (BID)): 18.8%
- Physician's global assessment of response to therapy: fair ([1]; 35 mg/knee (BID)): 17.2%
- Physician's global assessment of response to therapy: good ([1]; 35 mg/knee (BID)): 42.2%
- Physician's global assessment of response to therapy: none ([1]; 35 mg/knee (BID)): 7.8%
- Physician's global assessment of response to therapy: poor ([1]; 35 mg/knee (BID)): 14.1%
- Physician's global assessment of response to therapy: total percentage of excellent and good ([1]; 35 mg/knee (BID)): 60.9%
- Subject's global assessment of response to therapy: Excellent ([1]; 35 mg/knee (BID)): 18.0%
- Subject's global assessment of response to therapy: fair ([1]; 35 mg/knee (BID)): 18.3%
- Subject's global assessment of response to therapy: good ([1]; 35 mg/knee (BID)): 49.2%
- Subject's global assessment of response to therapy: none ([1]; 35 mg/knee (BID)): 9.8%
- Subject's global assessment of response to therapy: poor ([1]; 35 mg/knee (BID)): 4.9%
- Subject's global assessment of response to therapy: total percentage of excellent and good ([1]; 35 mg/knee (BID)): 67.2%
- NOAEL at 14 days [2]: 250 mg/kg/day
- Physician's Global Assessment of Disease Status: Improved (percentage of patients who improved by 2 grades or more from baseline, or from 1 to 0) ([3]; 8.75 mg/knee (BID)): 10.5%
- Physician's Global Assessment of Disease Status: Worsened (percentage of patients who worsened by 2 grades or more from baseline, or from 3 to 4) ([3]; 8.75 mg/knee (BID)): 1.8%
- patients improved by 2 grades or more from baseline (physician's global assessment) ([3]; 8.75 mg/knee (BID)): 10.5%
- Physician's Global Assessment of Disease Status: Improved (percentage of patients who improved by 2 grades or more from baseline, or from 1 to 0) ([3]; 17.5 mg/knee (BID)): 35.6%
- Physician's Global Assessment of Disease Status: Worsened (percentage of patients who worsened by 2 grades or more from baseline, or from 3 to 4) ([3]; 17.5 mg/knee (BID)): 1.7%
- Physician's Global Assessment of Disease Status: Improved (percentage of patients who improved by 2 grades or more from baseline, or from 1 to 0) ([3]; 35 mg/knee (BID)): 30.9%
- Physician's Global Assessment of Disease Status: Worsened (percentage of patients who worsened by 2 grades or more from baseline, or from 3 to 4) ([3]; 35 mg/knee (BID)): 0%
